Assay results as given in the supplement of paper PMC7287046.

Experiments:
Conditions in all cases: exposure time: 72 h
[1] = tested on: SF539; experiment: HSA synergy score (Combenefit); higher = more synergy
Protocol: (§1)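 The same 6x6 dose matrices of drug pairs on glioma cell lines (72 h, CellTiter-Glo viability normalised to DMSO, triplicate) were scored with Combenefit. The Loewe, Bliss and HSA synergy scores are given; paper thresholds are Loewe 7.8 and Bliss 2.5.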

[2] = tested on: U251; experiment: as above
Protocol: as §1

[3] = tested on: U118; experiment: as above
Protocol: as §1

[4] = tested on: AM-38; experiment: as above
Protocol: as §1

[5] = tested on: U87; experiment: as above
Protocol: as §1

[6] = tested on: KNS-42; experiment: as above
Protocol: as §1

[7] = tested on: SNB75; experiment: as above
Protocol: as §1

[8] = tested on: SF268; experiment: as above
Protocol: as §1

[9] = tested on: T98G; experiment: as above
Protocol: as §1

[10] = tested on: SF539; experiment: Bliss synergy score (Combenefit); higher = more synergy; extreme values may be limits of the assay
Protocol: as §1

[11] = tested on: U251; experiment: as above
Protocol: as §1

[12] = tested on: U118; experiment: as above
Protocol: as §1

[13] = tested on: AM-38; experiment: as above
Protocol: as §1

[14] = tested on: U87; experiment: as above
Protocol: as §1

[15] = tested on: KNS-42; experiment: as above
Protocol: as §1

[16] = tested on: SNB75; experiment: as above
Protocol: as §1

[17] = tested on: SF268; experiment: as above
Protocol: as §1

[18] = tested on: T98G; experiment: as above
Protocol: as §1

[19] = tested on: SF539; experiment: Loewe synergy score (Combenefit); higher = more synergy; extreme values may be limits of the assay
Protocol: as §1

[20] = tested on: U251; experiment: as above
Protocol: as §1

[21] = tested on: U118; experiment: as above
Protocol: as §1

[22] = tested on: AM-38; experiment: as above
Protocol: as §1

[23] = tested on: U87; experiment: as above
Protocol: as §1

[24] = tested on: KNS-42; experiment: as above
Protocol: as §1

[25] = tested on: SNB75; experiment: as above
Protocol: as §1

[26] = tested on: SF268; experiment: as above
Protocol: as §1

[27] = tested on: T98G; experiment: as above
Protocol: as §1

[28] = tested on: KNS42; experiment: Chou-Talalay combination index (dimensionless); higher = less synergy (more antagonism)
Protocol: (§2)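 Glioma cell lines were treated for 72 h with a 6x6 matrix of two drugs, each in twofold dilutions with the top dose at the single-drug IC50. Viability was read by CellTiter-Glo and normalised to DMSO controls, in triplicate. The Chou-Talalay combination index was computed by the median effect principle; CI < 0.8 means synergy.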

[29] = tested on: SF539; experiment: as above
Protocol: as §2

[30] = tested on: U251; experiment: as above
Protocol: as §2

[31] = tested on: AM38; experiment: as above
Protocol: as §2

[32] = tested on: U118; experiment: as above
Protocol: as §2

[33] = tested on: T98; experiment: as above
Protocol: as §2

[34] = tested on: U87; experiment: as above
Protocol: as §2

[35] = tested on: SNB75; experiment: as above
Protocol: as §2

[36] = tested on: SF268; experiment: as above
Protocol: as §2

Row | Structure (SMILES) | HSA synergy score [1] | HSA synergy score [2] | HSA synergy score [3] | HSA synergy score [4] | HSA synergy score [5] | HSA synergy score [6] | HSA synergy score [7] | HSA synergy score [8] | HSA synergy score [9] | Bliss synergy score [10] | Bliss synergy score [11] | Bliss synergy score [12] | Bliss synergy score [13] | Bliss synergy score [14] | Bliss synergy score [15] | Bliss synergy score [16] | Bliss synergy score [17] | Bliss synergy score [18] | Loewe synergy score [19] | Loewe synergy score [20] | Loewe synergy score [21] | Loewe synergy score [22] | Loewe synergy score [23] | Loewe synergy score [24] | Loewe synergy score [25] | Loewe synergy score [26] | Loewe synergy score [27] | Chou-Talalay combination index [28] | Chou-Talalay combination index [29] | Chou-Talalay combination index [30] | Chou-Talalay combination index [31] | Chou-Talalay combination index [32] | Chou-Talalay combination index [33] | Chou-Talalay combination index [34] | Chou-Talalay combination index [35] | Chou-Talalay combination index [36]
1 | Nc1ccn([C@@H]2O[C@H](CO)[C@@H](O)C2(F)F)c(=O)n1 [Gemcitabine] + Cc1cc([C@@H](C)Nc2ccccc2C(=O)O)c2nc(N3CCOCC3)cc(=O)n2c1 [AZD6482] | 10.4 | 1.85 | 10.3 | 4.54 | 0 | 5.37 | 4.1 | 7.02 | 10.5 | 0.274 | 1.85 | 1.86 | 0.237 | 0 | 2.32 | 0 | 0.693 | 3.93 | 2.33 | 1.85 | 2.14 | 3.23 | 0 | 5.37 | 3.53 | 1.75 | 5.66 | 0.868 | 0.738 | 0.758 | 0.967 | 0.887 | 0.889 | 1.15 | 0.607 | 0.783
2 | Nc1ccn([C@@H]2O[C@H](CO)[C@@H](O)C2(F)F)c(=O)n1 [Gemcitabine] + C[C@@H](Oc1cc(-c2cnn(C3CCNCC3)c2)cnc1N)c1c(Cl)ccc(F)c1Cl [Crizotinib] | 2.44 | 7.75 | 0.488 | 3.33 | 0.0446 | 1.25 | 7.67 | 1.93 | 0 | 0.0351 | 0.679 | 0.063 | 0.116 | 0 | 0 | 4.81 | 0.175 | 0 | 0 | 2.98 | 0.443 | 3.12 | 0.0421 | 0.0765 | 5.91 | 0.179 | 0 | 0.783 | 0.801 | 0.752 | 0.719 | 0.987 | 1.03 | 1.25 | 0.899 | 0.954
3 | CC(=O)O[C@@]12CO[C@@H]1C[C@H](O)[C@@]1(C)C(=O)[C@H](O)C3=C(C)[C@@H](OC(=O)[C@H](O)[C@@H](NC(=O)OC(C)(C)C)c4ccccc4)C[C@@](O)([C@@H](OC(=O)c4ccccc4)[C@H]21)C3(C)C [Docetaxel] + N#CC(c1ccnc(NCCc2cccnc2)n1)c1nc2ccccc2s1 [AS601245] | 7.49 | 8.45 | 2.85 | 0.465 | 1.81 | 11.3 | 10.1 | 4.46 | 13 | 0.511 | 5.06 | 0.0703 | 0.0376 | 0.347 | 3.75 | 2.39 | 0.207 | 4.9 | 2.08 | 0.486 | 0.96 | 0.0158 | 0.835 | 3.02 | 5.22 | 0.451 | 10.3 | 0.832 | 0.69 | 0.673 | 1.13 | 0.875 | 0.553 | 0.00672 | 0.738 | 0.887
4 | Cc1cc([C@@H](C)Nc2ccccc2C(=O)O)c2nc(N3CCOCC3)cc(=O)n2c1 [AZD6482] + CCOc1nc(NC(=O)Cc2cc(OC)ccc2OC)cc(N)c1C#N [JNK inhibitor VIII] | 7.49 | 0.00428 | 8.89 | 17 | 1 | 0.866 | 6.97 | 4.35 | 11.5 | 0.0312 | 0.00428 | 2.95 | 14.5 | 1 | 0.255 | 6.97 | 0.107 | 10.8 | 1.84 | 0.00428 | 2.68 | 15.4 | 1 | 0.866 | 6.97 | 0.654 | 11.5 | 0.994 | 0.545 | 0.731 | 0.77 | 0.669 | 0.758 | 0.576 | 1 | 0.792
